We go through 3 compounds from patent US20100261726A1, “TREATMENT OF AML” (priority 2002, published 2010).

Read-outs that look alike come from different tables or passages of the source. Bounds are passed on as bounds.

Data set [1] concerns patient leukemic cells (AML samples). In words: cells. In kind it is cell-based. The procedure:
(§1) After informed consent bone marrow and peripheral blood cells were obtained at diagnosis from 6 pediatric AML patients aged 0-18 years. The diagnosis is assessed by cytomorphology using FAB classification and immunophenotyping (Bennett J M et al., Br. J. Haematol. 33: 451-458, 1976). Mononuclear cells (MNC) are separated by Lymphoprep (Nycomed, Oslo, Norway) density gradients and cryopreserved in liquid nitrogen until use. Cryopreserved AML cells are thawed rapidly at 37° C., diluted in a 5× volume of normal calf serum (NCS) as described by Dokter W H et al., Leukemia 9: 425-432, 1995. The remaining pellet is T-cell depleted by sheep red blood cells and separated over lymphoprep density gradient. Remaining blast cell population contained more than 95% AML cells, hereafter referred to as AML cells and cultured in RPMI-1640 supplemented with penicillin/streptomycin and 10% fetal bovine serum.
For the leukemic samples (10,000 cells/well) of the patients a 3-day cell culture is used. […] The optical density (OD) is linearly related to the number of viable cells. Control wells contain leukemic cells only with culture media without drugs, and blank wells contain culture media only. […] The LC50 value (drug concentration needed to kill 50% of the leukemic cells) is used to compare the differences between patients and/or various drug combinations. LC50 value equation: ([% leukemic cell survival >50%]−50)/([% leukemic cell survival >50%]−[% leukemic cell survival <50%])×(drug concentration when leukemic cell survival <50%−drug concentration when leukemic cell survival >50%)+(drug concentration when leukemic cell survival >50%).

The subject of data set [2] is TF-1 cells. Description: Apoptosis shown by PI DNA labeling (cell cycle analysis). Conditions: dose-dependent, overnight culture, 5% in control wells. In kind it is cell-based. As for the experimental part: Cells are washed with PBS and resuspended in 75% ethanol in PBS and kept at 4° C. for at least 30 minutes. Prior to analysis, cells are washed with PBS, resuspended and incubated for 30 minutes in 1 mg/mL RNase A in PBS and thereafter incubated in staining solution containing 0.05 mg/mL propidium iodide (Sigma), 1 mM EDTA and 0.1% Triton-X-100. The suspension is then passed through a nylon mesh filter and analyzed on Becton Dickinson FACScan.

The next data set has as its system K562 cells. In words: Total cell kill assay (MTT), leukemic cell line. In kind it is cell-based. To be noted: PTK787 in different concentrations.
Data set [3] deals with A431 epidermoid, Ls174T colon, HT-29 colon, PC-3 prostate carcinoma. Conditions: HT-29, PC-3 carcinomas; cited from earlier work.
Data set [4] relates to TF-1 cells. In words: Survival assay, viable cells counted by trypan blue exclusion after 24 hours. It counts as cell-based. As for the experimental part:
The cell lines HL-60, TF-1, K562 and U937 are obtained from American Type Culture Collection (Manassas, Va., USA) and cultured in RPMI-1640 (Roswell Park Memorial Institute) supplemented with penicillin/streptomycin and 10% fetal bovine serum (FBS, Hyclone, Logan, Utah, USA) for U937, K562 and HL-60 cells and supplemented with GM-CSF 1 ng/mL for TF-1 cells.
(§2) Before incubation with recombinant (rec) VEGF165 (Sigma, St. Louis, […].) and/or PTK787, AML cells and/or cell lines are serum starved for 4 hours in serum free medium (X-vivo 10, Biowhitaker, Brussels, Belgium). For proliferation experiments, cells are cultured in six-well plates (Corning-Costar Corp., Cambridge, Mass., USA), at a cell density of 1×10^5 cells per well in serum free medium (X-vivo-10) for 24 hours. Cells are treated (rec VEGF165 5-100 ng/mL) or untreated (media alone) and are cultured in the presence or absence of PTK787 (5-100 nM). After 24 hours viable cells (determined by trypan blue exclusion) are counted in triplicate using a hemocytometer. Each experiment is done in triplicate, and experiments with leukemic cell lines are repeated three times.

The test system of data set [5] is primary AML cells of pediatric AML patients. Description: Patient leukemic cell survival counted by trypan blue exclusion. In kind it is cell-based, human. As for the experimental part: as §1, §2
Correlations are calculated using the Spearman rank correlation coefficient (rho). A paired sample non-parametric test (Wilcoxon Signed Ranks test) is used to analyze the paired viable cells (with or without VEGF, as well as with or without PTK787). A significant difference is defined as a P-value <0.05.

The test system of another data set is HL-60 cells. Description: Total cell kill assay (MTT), leukemic cell line. In kind it is cell-based. To be noted: PTK787 in different concentrations. The procedure: (§3) In vitro cellular drug resistance of leukemic HL-60 and TF-1 cells (10,000 cells/well) are assessed using a 2-day cell culture assay based on the principle that only viable cells are able to reduce 3-(4,5-dimethyl-2-thiazolyl)-2,5-diphenyl-tetrazolium bromide (MTT) (5 mg/mL in PBS added to each well for 4 hours) to a colored formazan product, measured spectrophotometrically at 520 nm. For the leukemic samples (10,000 cells/well) of the patients a 3-day cell culture is used. […] The optical density (OD) is linearly related to the number of viable cells. Control wells contain leukemic cells only with culture media without drugs, and blank wells contain culture media only. Percentage of cell survival is calculated at each drug concentration by the equation (mean OD treated wells/mean OD control wells)×100% after correction for the background found in the blank wells. The results are considered evaluable when the control wells still contain 70% or more leukemic cells (determined by MGG staining) after a 3-day culture period. The mean OD of the control wells after correction for the background at 3 days always exceeds 0.1 arbitrary units for valid results. The LC50 value (drug concentration needed to kill 50% of the leukemic cells) is used to compare the differences between patients and/or various drug combinations. […]

The subject of data set [6] is TF-1 cells. Description: Total cell kill assay (MTT), leukemic cell line. In kind it is cell-based. To be noted: PTK787 in different concentrations. As for the experimental part: as §3
The mark [7] stands for this setting: Homo sapiens, read-out: LC50 value, Patient No. 1, drug alone.
Where [8] appears, read: Homo sapiens, read-out: LC50 value, Patient No. 1, with PTK787 5 nM.
[9] abbreviates: Homo sapiens, read-out: LC50 value, Patient No. 1, with PTK787 10 nM.
Where [10] appears, read: Homo sapiens, read-out: LC50 value, Patient No. 1, with PTK787 25 nM.
Setting [11] is: Homo sapiens, read-out: LC50 value, Patient No. 2, drug alone.
The mark [12] stands for this setting: Homo sapiens, read-out: LC50 value, Patient No. 2, with PTK787 5 nM.
Where [13] appears, read: Homo sapiens, read-out: LC50 value, Patient No. 3, drug alone.
Where [14] appears, read: Homo sapiens, read-out: LC50 value, Patient No. 3, with PTK787 5 nM.
Setting [15] is: Homo sapiens, read-out: LC50 value, Patient No. 4, drug alone.
Where [16] appears, read: Homo sapiens, read-out: LC50 value, Patient No. 4, with PTK787 5 nM.
The mark [17] stands for this setting: Homo sapiens, read-out: LC50 value, Patient No. 5, drug alone.
The mark [18] stands for this setting: Homo sapiens, read-out: LC50 value, Patient No. 5, with PTK787 5 nM.
Setting [19] is: PTK787 (25 nM) plus exogenous VEGF165.

Turning to `Nc1ccn([C@@H]2O[C@H](CO)[C@@H](O)[C@@H]2O)c(=O)n1` [Cytarabine, cytarabine], the CC50 in data set [1] (setting [7]) was 400 µg/mL; in data set [1] (setting [8]) it was 260 µg/mL; in data set [1] (setting [9]), 250 µg/mL; in data set [1] (setting [10]), 35 µg/mL; in data set [1] (setting [11]), 5 µg/mL; in data set [1] (setting [12]), 0.6 µg/mL. In addition, the CC50 in data set [1] (setting [13]) was 4.7 µg/mL; in data set [1] (setting [14]), 0.23 µg/mL; in data set [1] (setting [15]), 1500 µg/mL; in data set [1] (setting [16]), 560 µg/mL; in data set [1] (Homo sapiens, read-out: LC50 value, Patient No. 4, with PTK787 10 nM), 10 µg/mL; in data set [1] (Homo sapiens, read-out: LC50 value, Patient No. 4, with PTK787 25 nM) it was 0.2 µg/mL. Further, the CC50 in data set [1] (setting [17]) is 3 µg/mL; in data set [1] (setting [18]) it was 0.24 µg/mL.

`Clc1ccc(Nc2nnc(Cc3ccncc3)c3ccccc23)cc1` [PTK787]: the “apoptosis (fraction of apoptotic cells)” value in the data set with TF-1 cells [2] is on record as “up to 12%”. The figures for the leukemic cell survival result with K562 cells, with HL-60 cells and with TF-1 cells [6] were “no decrease at all”, “up to 1%” and “up to 10%”, respectively. Also, the CC50 in data set [1] (Patient No. 1, 72 hours, read-out: LC50 value) was over 25 nM; in data set [1] (Patient No. 2, 72 hours, read-out: LC50 value), 7.3 nM; in data set [1] (Patient No. 3, 72 hours, read-out: LC50 value), 5.8 nM; in data set [1] (Patient No. 4, 72 hours, read-out: LC50 value), 25 nM; in data set [1] (Patient No. 5, 72 hours, read-out: LC50 value), 7.7 nM; in data set [1] (Patient No. 6, 72 hours, read-out: LC50 value) it was 14.5 nM. For the same compound, the “growth of human carcinomas transplanted orthotopically into mice” value in data set [3] was “inhibits the growth”. Further, the “vessel density in the tumor tissues” value in data set [3] was “does reduce vessel density”. In the data set with TF-1 cells [4] (25 nM PTK787, 24 hours), this compound showed a TF-1 cell survival of 21.9%. For the same compound, the “effect of PTK787 on cell survival on addition of rec VEGF” value in the data set with TF-1 cells [4] (25 and 50 nM PTK787 plus rec VEGF, TF-1 cells) is “can be blocked”. Moreover, the “decrease in cell survival, median” value in data set [5] (setting [19]) came out at 15%. In addition, the “decrease in cell survival, range over patients” value was 0%-35.5% in data set [5] (setting [19]) and 28.2%-75.4% in data set [5] (PTK787 alone (25 nM)). Further, in data set [5] (PTK787 alone (25 nM), patient samples, p-value 0.043), the “decrease in cell survival (cell death), median” value is 55.1%.

For the compound `O=C1c2c(O)ccc(O)c2C(=O)c2c(NCCNCCO)ccc(NCCNCCO)c21` [Mitoxantrone, mitoxantrone], the CC50 in data set [1] (setting [7]) is 0.23 µg/mL; in data set [1] (setting [8]), 0.16 µg/mL; in data set [1] (setting [9]), 0.19 µg/mL; in data set [1] (setting [10]), 0.03 µg/mL; in data set [1] (setting [11]), 0.0175 µg/mL; in data set [1] (setting [12]) it was 6.1e-05 µg/mL. The CC50 in data set [1] (setting [13]) was determined as 0.043 µg/mL; in data set [1] (setting [14]), 0.0004 µg/mL; in data set [1] (setting [15]), 0.054 µg/mL; in data set [1] (setting [16]) it was 2.3e-05 µg/mL; in data set [1] (setting [17]), 0.0186 µg/mL; in data set [1] (setting [18]), 6.1e-05 µg/mL. In data set [1] (Homo sapiens, read-out: LC50 value, Patient No. 5, with PTK787 10 nM), the CC50 was 8e-07 µg/mL.
